Broadly, the EC50 is the midpoint of the concentration-response curve.

One test deals with monocistronic NK5.1 HCV replicon in Huh7 cells. As to the kind of experiment: HCV replicon assay, monocistronic replicon cell line. The test is classed as cell-based, hepatitis C virus. Conditions: Hepatitis C virus, Huh-7, 72 h, read-out: Mono EC50 Median. In outline: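 EC50 derives from the HCV RNA/GAPDH RNA ratio by one-step TaqMan RT-PCR, relative to DMSO-only wells. Compounds (six half-log concentrations, 0.6% DMSO) were incubated 3 days at 37 °C with NK5.1 monocistronic replicon Huh7 cells plated a day earlier.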
On to `O=[N+]([O-])c1ccc(O)c(-c2nc(-c3ncccc3[N+](=O)[O-])no2)c1` [Compound 158, 4-Nitro-2-[3-(3-nitro-pyridin-2-yl)-[1,2,4]oxadiazol-5-yl]-phenol], for which the EC50 turned out to be 11 µM.

The same test, now with this note: Hepatitis C virus, Huh-7, 72 h; Table 1; monocistronic replicon in Huh7 cells, 3 days incubation, HCV RNA/GAPDH RNA by TaqMan RT-PCR; read-out: Mono EC50 Median.
Consider `O=[N+]([O-])c1cccnc1-c1noc(-c2ccccc2O)n1` [Compound 161, 2-[3-(3-Nitro-pyridin-2-yl)-[1,2,4]oxadiazol-5-yl]-phenol], for which the EC50 was greater than 19 µM.
For `COc1ccc(O)c(-c2cc(-c3ccccn3)on2)c1` [Compound 125, 4-Methoxy-2-(5-pyridin-2-yl-isoxazol-3-yl)-phenol], the EC50 was determined as 11 µM.
In the case of `Cc1ccc(O)c(-c2nc(-c3ccccn3)no2)c1` [Compound 172, 4-Methyl-2-(3-pyridin-2-yl-[1,2,4]oxadiazol-5-yl)-phenol], the EC50 turned out to be 6 µM.
As to `COc1ccc(-n2nc(-c3ccccc3O)cc2C)cc1` [Compound 14, 2-[1-(4-Methoxy-phenyl)-5-methyl-1H-pyrazol-3-yl]-phenol], the EC50 was 11 µM.
`COc1ccc(-c2nc(-c3ccccn3)no2)c(O)c1` [Compound 152, 5-Methoxy-2-(3-pyridin-2-yl-[1,2,4]oxadiazol-5-yl)-phenol]: the EC50 was 5.6 µM.
Take `CCCNC(=O)c1cc(-c2ccc3ccccc3c2)nn1-c1ncccc1C(F)(F)F` [Compound 76, 5-Naphthalen-2-yl-2-(3-trifluoromethyl-pyridin-2-yl)-2H-pyrazole-3-carboxylic acid propylamide]: the EC50 amounted to 9.4 µM.
As for `Cc1cccnc1-c1cc(-c2cc(Br)ccc2O)no1` [Compound 131, 4-Bromo-2-[5-(3-methyl-pyridin-2-yl)-isoxazol-3-yl]-phenol], the EC50 came to 4.5 µM.
As to `COc1ccc(OC)c(-c2nc(-c3ncccc3[N+](=O)[O-])no2)c1` [Compound 159], the EC50 was 16 µM.
Still for that read-out and setting: in the case of `Brc1ccc(OCc2ccccc2)c(-c2ccn(-c3ccccn3)n2)c1` [Compound 98, 2-[3-(2-Benzyloxy-5-bromo-phenyl)-pyrazol-1-yl]-pyridine] it was 15 µM; in that of `COc1ccc(-c2cc(C(=O)O)n(-c3ccccn3)n2)cc1` [Compound 63], greater than 32 µM; in that of `COc1ccc(-c2ccnn2-c2ncc(C(F)(F)F)cc2Cl)c(F)c1` [Compound 48, 3-Chloro-2-[5-(2-fluoro-4-methoxy-phenyl)-pyrazol-1-yl]-5-trifluoromethyl-pyridine], 15 µM.
Regarding `Cc1ccc(O)c(-c2nc(-c3ncccc3[N+](=O)[O-])no2)c1` [Compound 174, 4-Methyl-2-[3-(3-nitro-pyridin-2-yl)-[1,2,4]oxadiazol-5-yl]-phenol], the 50% effective concentration (EC50) worked out at 10 µM.
With `COc1ccc(O)c(-c2nc(-c3ccc(NC(=O)OC(C)(C)C)cn3)no2)c1` [Compound 239, {6-[5-(2-Hydroxy-5-methoxy-phenyl)-[1,2,4]oxadiazol-3-yl]-pyridin-3-yl}-carbamic acid tert-butyl ester], the EC50 worked out at 2.1 µM.
Still for that read-out and setting: with `Cc1ccc(O)c(-c2nc(-c3nccc4ccccc34)no2)c1` [Compound 194, 2-(3-Isoquinolin-1-yl-[1,2,4]oxadiazol-5-yl)-4-methyl-phenol] the figure was greater than 10 µM; with `Oc1ccccc1-c1ccnn1-c1ccccc1F` [Compound 35, 2-[2-(2-Fluoro-phenyl)-2H-pyrazol-3-yl]-phenol], 14 µM.

Still in this test, the particulars now being: Hepatitis C virus, Huh-7, 72 h; table T3 (compounds 471-640); monocistronic replicon in Huh7 cells, 3 days incubation, HCV RNA/GAPDH RNA by TaqMan RT-PCR; read-out: Mono EC50 Median.
As to `COc1cccc(-c2nc(-c3ncccc3C(F)(F)F)n[nH]2)c1` [Compound 547, 2-[5-(3-Methoxy-phenyl)-1H-[1,2,4]triazol-3-yl]-3-trifluoromethyl-pyridine], the EC50 was greater than 19 µM.
The same measure, in the same setting: with `Oc1c(Br)cc(Br)cc1-c1nc(-c2ccccn2)n[nH]1` [Compound 620, 4,6-Dibromo-2-(5-pyridin-2-yl-2H-[1,2,4]triazol-3-yl)-phenol] the figure was 0.6 µM.
With `O=[N+]([O-])c1cccc(-c2nc(-c3cnccc3C(F)(F)F)n[nH]2)c1` [Compound 480, 3-[5-(3-Nitro-phenyl)-1H-[1,2,4]triazol-3-yl]-4-trifluoromethyl-pyridine], the EC50 is greater than 32 µM.
Regarding `Oc1ccc(Cl)cc1-c1nc(-c2ncccc2C(F)(F)F)n[nH]1` [Compound 535, 4-Chloro-2-[5-(3-trifluoromethyl-pyridin-2-yl)-2H-[1,2,4]triazol-3-yl]-phenol], the EC50 came out at 4.1 µM.
`COc1cccc(-c2nc(-c3ncccc3C(F)(F)F)n[nH]2)c1O` [Compound 543, 6-Methoxy-2-[5-(3-trifluoromethyl-pyridin-2-yl)-2H-[1,2,4]triazol-3-yl]-phenol]: the concentration for a half-maximal effect (EC50) was greater than 19 µM.
Regarding `COc1cccc(-c2nc(-c3ccc(C(F)(F)F)cn3)n[nH]2)c1O` [Compound 519, 6-Methoxy-2-[5-(5-trifluoromethyl-pyridin-2-yl)-2H-[1,2,4]triazol-3-yl]-phenol], the EC50 is greater than 19 µM.
Consider `FC(F)(F)c1cccnc1-c1n[nH]c(-c2cccc3ccccc23)n1` [Compound 530, 2-(5-Naphthalen-1-yl-1H-[1,2,4]triazol-3-yl)-3-trifluoromethyl-pyridine], for which the EC50 was greater than 19 µM.
For the compound `Oc1ccccc1-c1nc(-c2ncccn2)n[nH]1` [Compound 569, 2-(5-pyrimidin-2-yl-2H-[1,2,4]triazol-3-yl)-phenol], the EC50 was greater than 32 µM.
As to `Oc1c(-c2nc(-c3ncccn3)n[nH]2)ccc2ccccc12` [Compound 574, 2-(5-Pyrimidin-2-yl-2H-[1,2,4]triazol-3-yl)-naphthalen-1-ol], the EC50 is greater than 32 µM.
Turning to `Cn1nc(-c2ccccn2)nc1-c1ccccc1O` [Compound 602, 2-(2-methyl-5-pyridin-2-yl-2H-[1,2,4]triazol-3-yl)-phenol], the EC50 was greater than 32 µM.
Turning to `Fc1cc(Br)ccc1-c1nc(-c2ccc(C(F)(F)F)cn2)n[nH]1` [Compound 528, 2-[5-(4-Bromo-2-fluoro-phenyl)-1H-[1,2,4]triazol-3-yl]-5-trifluoromethyl-pyridine], the EC50 is greater than 19 µM.
Turning to `Oc1cc(OCc2ccccc2)ccc1-c1nc(-c2ncccc2Br)n[nH]1` [Compound 490, 2-[5-(3-Bromo-pyridin-2-yl)-2H-[1,2,4]triazol-3-yl]-5-Benzyloxy-phenol], the EC50 is 7 µM.
Consider `Oc1c(Br)cc(Cl)cc1-c1nc(-c2ccccn2)n[nH]1` [Compound 621, 4-Chloro-6-bromo-2-(5-pyridin-2-yl-2H-[1,2,4]triazol-3-yl)-phenol], for which the EC50 stood at 0.5 µM.
With `FC(F)(F)c1cccnc1-c1n[nH]c(-c2c(Cl)cccc2Cl)n1` [Compound 551, 2-[5-(2,6-Dichloro-phenyl)-1H-[1,2,4]triazol-3-yl]-3-trifluoromethyl-pyridine], the 50% effective concentration (EC50) was greater than 19 µM.

The test is the same for the next values; noted with them: Hepatitis C virus, Huh-7; monocistronic NK5.1 HCV replicon in Huh7 cells; median value; read-out: Mono EC50 Median.
Regarding `Oc1ccc2ccccc2c1-c1nnc(-c2ccccc2C(F)(F)F)o1` [Compound 306, 1-[5-(2-Trifluoromethyl-phenyl)-[1,3,4]oxadiazol-2-yl]-naphthalen-2-ol], the EC50 is 26 µM.
For `Cc1ccc(O)c(-c2nc(-c3ccccn3)n[nH]2)c1` [Compound 359, 4-Methyl-2-(5-pyridin-2-yl-2H-[1,2,4]triazol-3-yl)-phenol], the EC50 was greater than 19 µM.
Same read-out and setting: with `Oc1ccc(O)c(-c2nc(-c3ccccn3)n[nH]2)c1` [Compound 386, 4-Hydroxy-2-(5-pyridin-2-yl-2H-[1,2,4]triazol-3-yl)-phenol] the figure was greater than 19 µM; with `COc1cccc(-c2nc(-c3cccc(C)n3)n[nH]2)c1O` [Compound 403, 6-Methoxy-2-(5-(6-methyl-pyridin-2-yl)-2H-[1,2,4]triazol-3-yl)-phenol], greater than 19 µM.
As for `COc1ccc(O)c(-c2nc(-c3ncccc3C)n[nH]2)c1` [Compound 444, 4-Methoxy-2-(5-(3-methyl-pyridin-2-yl)-2H-[1,2,4]triazol-3-yl)-phenol], the EC50 turned out to be 7.7 µM.
Take `Oc1ccccc1-c1nc(-c2cnccc2C(F)(F)F)n[nH]1` [Compound 422, 2-[5-(4-trifluoromethyl-pyridin-3-yl)-2H-[1,2,4]triazol-3-yl]-phenol]: the EC50 is greater than 19 µM.
With `CCOc1ccc(O)c(-c2nc(-c3ncccc3C)no2)c1` [Compound 271, 4-Ethoxy-2-[3-(3-methyl-pyridin-2-yl)-[1,2,4]oxadiazol-5-yl]-phenol], the EC50 turned out to be 0.61 µM.
With `CCOc1cccc(-c2nc(-c3cnccc3C(F)(F)F)n[nH]2)c1O` [Compound 416, 6-Ethoxy-2-[5-(4-trifluoromethyl-pyridin-3-yl)-2H-[1,2,4]triazol-3-yl]-phenol], the EC50 is greater than 19 µM.
Regarding `Oc1ccccc1-c1nnc(-c2ccccc2)o1` [Compound 318, 2-(5-Phenyl-[1,3,4]oxadiazol-2-yl)-phenol], the EC50 is 14 µM.
Regarding `COc1ccc(O)c(-c2nc(-c3ccc(NC(=O)OC(C)(C)C)cn3)no2)c1` [Compound 239, {6-[5-(2-Hydroxy-5-methoxy-phenyl)-[1,2,4]oxadiazol-3-yl]-pyridin-3-yl}-carbamic acid tert-butyl ester], the EC50 was 2.1 µM.
Consider `Oc1ccc(F)cc1-c1nc(-c2cnccc2C(F)(F)F)n[nH]1` [Compound 413, 4-Fluoro-2-[5-(4-trifluoromethyl-pyridin-3-yl)-2H-[1,2,4]triazol-3-yl]-phenol], for which the EC50 is greater than 19 µM.
Still for that read-out and setting: with `Oc1ccc2ccccc2c1-c1nnc(-c2ncc(C(F)(F)F)cc2Cl)o1` [Compound 309, 1-[5-(3-Chloro-5-trifluoromethyl-pyridin-2-yl)-[1,3,4]oxadiazol-2-yl]-naphthalen-2-ol] the figure was 16 µM.
Take `Cc1cccc(-c2n[nH]c(-c3cc(Br)ccc3O)n2)n1` [Compound 399, 4-Bromo-2-(5-(6-methyl-pyridin-2-yl)-2H-[1,2,4]triazol-3-yl)-phenol]: the EC50 was greater than 19 µM.
As to `Cc1cccc(-c2n[nH]c(-c3cccc(Br)c3)n2)n1` [Compound 463, 2-[5-(3-Bromo-phenyl)-1H-[1,2,4]triazol-3-yl]-6-methyl-pyridine], the EC50 came to 19 µM.

The record behind these values is patent US20050075375A1 (priority 2003, published 2005).
